Experimental data: patent US20250170085A1, “TOPICAL FORMULATION TO DECREASE SKIN INFLAMMATION OR REDNESS” (University of Pittsburgh - Of the Commonwealth System of …, priority 2022, published 2025)

Assays:
[1] = Patient-reported itching after facial application of 5% w/w β-alanine cream with menthol; type: in vivo, human
Description: (§1) FIGS. 2A and 2B show subjective patient-reported scoring for itch (FIG. 2A) and overall discomfort (FIG. 2B) of facially applied cream containing 5% w/w β-alanine and the indicated concentration of menthol. Each of the four formulations (0%, 0.5%, 1.0%, and 1.5% w/w menthol with 5% w/w f-alanine) were sequentially applied to different locations of a patient's cheek skin by a physician. Scoring was on a scale of 0 to 10, with 0 being no itch or discomfort and 10 being maximum itch or discomfort. Each symbol represents an individual patient (n=10). Bar height indicates the average value. Error bars represent +/−SEM. * P<0.05; ** P<0.01. P-values were calculated using a nonparametric ANOVA Kruskai-Wallis test.
A cohort of patients without inflammatory skin conditions (n=10) was given four different topical formulations for facial application. All four formulations contained 5% w/w β-alanine in Versapro® Cream (see, e.g., Example 1), however, each contained a different concentration of menthol (0.0%, 0.5%, 1.0%, and 1.5% w/w). A physician sequentially applied 0.1 ml of each formulation to distinct areas of the cheek with a 10 minute pause between each application. Patients were asked to rate the degree of itching and overall discomfort on a scale of 0 (no itching) to 10 (maximal itching) over the course of 5 minutes. […]

[2] = Patient-reported overall discomfort (eye irritation, cold sensation) after facial application of 5% w/w β-alanine cream with menthol; type: in vivo, human; conditions: for overall discomfort, scale 0 to 10: attributable to eye irritation and an unpleasant cold sensation
Description: as §1
A cohort of patients without inflammatory skin conditions (n=10) was given four different topical formulations for facial application. All four formulations contained 5% w/w β-alanine in Versapro® Cream (see, e.g., Example 1), however, each contained a different concentration of menthol (0.0%, 0.5%, 1.0%, and 1.5% w/w). A physician sequentially applied 0.1 ml of each formulation to distinct areas of the cheek with a 10 minute pause between each application. Patients were asked to rate the degree of itching and overall discomfort on a scale of 0 (no itching) to 10 (maximal itching) over the course of 5 minutes. The same process was repeated for the 0.5%, 1.0% and 1.5% w/w menthol containing formulations.

[3] = Description: The four β-alanine formulations (0%, 2.5%, 5.0%, and 7.5% w/w β-alanine) were sequentially applied to a different location of each patient's cheek skin by a physician. Subjective scoring for itch (0 (none) to 10 (maximum itch)) was recorded over a 5-minute period. Symbols on the bar graph represent individual patients (n=16). Bar height indicates the average value. […] P-values were calculated using a nonparametric ANOVA Kruskai-Wallis test.
β-alanine powder (GNC, #369898) was mixed into Versapro® Cream at a concentration of 0%, 2.5%, 5.0% or 7.5% w/w. The ingredients of Versapro® Cream include water, aloe Barbadensis leaf juice, cyclopentasiloxane, disodium EDTA, emulsifying wax NF, ethylhexglyglycering, ethylhexyl stearate, phenoxyethanol, sorbitol, and tocopheryl acetate. The mixture was agitated until homogenous.
A cohort of patients without skin disease were selected for testing (n=16). Each patient had 0.1 ml of cream applied to cheek skin by a physician. Over the course of 5 minutes, the patients reported the intensity of pruritus (itching) on a scale of 0 (no itching) to 10 (maximal itching). The process was repeated for all four formulations (0%, 2.5%, 5.0% or 7.5% w/w β-alanine) using different areas of cheek skin. The efficacy of topical J3-alanine was determined based on the development of pruritus.

[4] = 0.5% w/w menthol in 5% w/w β-alanine cream

| SMILES | intensity of itching [1, 4] | degree of itching, scale 0 to 10 ([1]; all concentrations of menthol (0.5%, 1.0%, 1.5% w/w) in 5% w/w β-alanine Versapro Cream, 0.1 ml on cheek, over 5 minutes, n=10) | eye discomfort [2, 4] | overall discomfort, scale 0 to 10 ([2]; 1.0% w/w menthol in 5% w/w β-alanine cream) | overall discomfort, scale 0 to 10 ([2]; 1.5% w/w menthol in 5% w/w β-alanine cream) | intensity of pruritus (itching), scale 0 to 10 ([3]; 2.5% w/w β-alanine in Versapro Cream, 0.1 ml on cheek skin, over 5 minutes, patients without skin disease (n=16)) | duration of pruritus triggered by topical cream ([3]; topical β-alanine cream on cheek skin) |
| --- | --- | --- | --- | --- | --- | --- | --- |
| CC1CCC(C(C)C)C(O)C1 (stereo not shown) [menthol, 5-methyl-2-(propan-2-yl)cyclohexan-1-ol] | successfully decreased | notably reduced | without promoting eye discomfort | increased | increased | – | – |
| NCCC(=O)O [β-alanine, 3-aminopropanoic acid] | – | – | – | – | – | evident | less than 5 minutes |
